Patent EP2236511A2, “LIGANDS OF ALPHA-ADRENOCEPTORS AND OF DOPAMINE, HISTAMINE, IMIDAZOLINE AND SEROTONIN RECEPTORS AND THE USE THEREOF” (priority 2007, dated 2009)
Where a name gives a salt, the structure may show the parent alone. Read-outs that look alike come from different tables or passages of the source.

Legend:
[1] = target: T1, human D1 receptor (Homo sapiens, UniProt P21728); test: Radioligand binding to dopamine receptor D1 ([3H] SCH-23390, CHO membranes); conditions: for inhibition at 10 µM: read-out: Dopamine receptors, % inhibition D1
T1 construct: expressed in transfected cells; host or cells: CHO
T1 sequence (P21728 whole entry): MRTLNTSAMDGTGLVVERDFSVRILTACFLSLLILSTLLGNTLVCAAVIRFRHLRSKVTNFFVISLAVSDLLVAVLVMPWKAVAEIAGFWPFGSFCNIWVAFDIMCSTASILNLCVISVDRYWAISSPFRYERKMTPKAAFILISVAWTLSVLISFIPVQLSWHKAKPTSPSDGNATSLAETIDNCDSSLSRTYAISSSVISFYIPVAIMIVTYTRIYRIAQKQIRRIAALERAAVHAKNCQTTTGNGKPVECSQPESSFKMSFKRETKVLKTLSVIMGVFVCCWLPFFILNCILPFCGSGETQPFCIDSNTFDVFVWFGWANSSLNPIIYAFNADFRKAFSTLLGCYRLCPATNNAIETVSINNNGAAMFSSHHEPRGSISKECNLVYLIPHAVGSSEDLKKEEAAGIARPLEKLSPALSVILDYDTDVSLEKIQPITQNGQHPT
From the text: For this purpose sDNA of human D1 receptor is expressed in CHO cells, as it was described in [Dearry A, Gingrich JA, Falardeau P, Fremeau RT Jr, Bates MD and Caron MG. Molecular cloning and expression of the gene for a human D1 dopamine receptor. Nature. […] Nature.

[2] = target: T2, human α1D receptor (Homo sapiens, UniProt P25100); test: Radioligand binding to adrenergic receptor α1D ([3H] Prazosin, HEK-293 membranes); conditions: for nH: Receptor α1D
T2 construct: expressed in transfected cells; host or cells: HEK-293
T2 sequence (P25100 1-572): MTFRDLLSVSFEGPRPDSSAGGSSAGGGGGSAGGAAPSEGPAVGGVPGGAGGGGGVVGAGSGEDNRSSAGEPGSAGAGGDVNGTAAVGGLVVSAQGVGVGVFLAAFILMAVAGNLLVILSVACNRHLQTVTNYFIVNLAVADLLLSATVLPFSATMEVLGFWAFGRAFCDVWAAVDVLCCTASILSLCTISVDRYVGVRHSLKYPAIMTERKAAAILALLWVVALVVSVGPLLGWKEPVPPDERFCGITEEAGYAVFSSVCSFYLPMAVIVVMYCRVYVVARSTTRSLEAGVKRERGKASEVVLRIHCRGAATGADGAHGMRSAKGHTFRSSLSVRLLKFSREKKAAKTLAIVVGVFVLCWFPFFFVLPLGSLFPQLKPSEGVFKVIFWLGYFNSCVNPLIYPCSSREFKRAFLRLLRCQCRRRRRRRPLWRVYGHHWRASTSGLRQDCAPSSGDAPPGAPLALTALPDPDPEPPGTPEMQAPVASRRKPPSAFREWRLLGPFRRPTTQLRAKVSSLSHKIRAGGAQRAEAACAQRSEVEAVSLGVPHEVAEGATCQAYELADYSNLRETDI
From the text: 6-C. […] For this purpose sDNA of human α1D receptor is expressed in HEK-293 cells, as it was described in [TL Theroux, TA Esbenshade, RD Peavy and KP Minneman. Coupling efficiencies of human alpha 1-adrenergic receptor subtypes: titration of receptor density and responsiveness with inducible and repressible expression vectors. Mol Pharmacol.; 50: 1376-1387, 1996]. […] Characterization of an α1D-adrenoceptor mediating the contractile response of rat aorta to noradrenaline. […] Prazosin is used as positive control.

[3] = target: T3, human D4.2 receptor (Homo sapiens, UniProt P21917, DEL265-296); test: Radioligand binding to dopamine receptor D4.2 ([3H] Spiperone, CHO-K1 membranes); conditions: read-out: Dopamine receptors, % inhibition D4.2
T3 construct: expressed in transfected cells; host or cells: CHO-K1
T3 sequence (P21917 with tags, fused parts or gaps DEL265-296): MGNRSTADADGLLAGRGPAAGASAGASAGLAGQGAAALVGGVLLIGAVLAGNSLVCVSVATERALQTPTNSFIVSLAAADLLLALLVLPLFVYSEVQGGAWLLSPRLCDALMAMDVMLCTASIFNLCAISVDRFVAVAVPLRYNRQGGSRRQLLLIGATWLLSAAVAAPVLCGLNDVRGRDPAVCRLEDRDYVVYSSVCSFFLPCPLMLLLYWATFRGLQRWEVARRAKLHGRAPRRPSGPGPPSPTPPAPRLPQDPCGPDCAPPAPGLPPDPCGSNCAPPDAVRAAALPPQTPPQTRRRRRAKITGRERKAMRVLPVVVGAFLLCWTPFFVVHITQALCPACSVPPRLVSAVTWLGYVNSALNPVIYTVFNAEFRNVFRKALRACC
Procedure: Screening of the disclosed compounds for potential ability to interact with dopamine receptor D4.2 is carried out by method of radioligand binding. […] From the cells transfected in this way membrane species are prepared by homogenization of these cells in glass homogenizer with the subsequent separation of plasmatic membranes from cell nuclei, mitochondrias and cell wreckages by differential centrifugation. […] After incubation samples are filtered in vacuo on glass-microfiber filters G/F (Millipor, USA), filters are washed three times with cold solution of medium and radioactivity is measured by scintillation counter MicroBeta 340 (Perkin Elmer, USA). Nonspecific binding which makes up 10% of the overall binding is determined by incubation of membrane species with radioligand in the presence of 10 µM of Haloperidol.
Spiperone is used as positive control. Tested compounds' binding to the receptor is determined by their ability to displace radioligand and expressed in percent of displacement (%I). Values of %I are calculated according to the following equation: %I = (TA-CA)/(TA-NA)*100, [formula] wherein: TA - is overall radioactivity in the presence of radioligand only, CA - is radioactivity in the presence of radioligand and tested compound and NA - is radioactivity in the presence of radioligand and Haloperidol (10 µM).

[4] = target: T4, human D3 receptor (Homo sapiens, UniProt P35462); test: Radioligand binding to dopamine receptor D3 ([3H] Spiperone, CHO membranes)
T4 construct: expressed in transfected cells; host or cells: CHO
T4 sequence (P35462 whole entry): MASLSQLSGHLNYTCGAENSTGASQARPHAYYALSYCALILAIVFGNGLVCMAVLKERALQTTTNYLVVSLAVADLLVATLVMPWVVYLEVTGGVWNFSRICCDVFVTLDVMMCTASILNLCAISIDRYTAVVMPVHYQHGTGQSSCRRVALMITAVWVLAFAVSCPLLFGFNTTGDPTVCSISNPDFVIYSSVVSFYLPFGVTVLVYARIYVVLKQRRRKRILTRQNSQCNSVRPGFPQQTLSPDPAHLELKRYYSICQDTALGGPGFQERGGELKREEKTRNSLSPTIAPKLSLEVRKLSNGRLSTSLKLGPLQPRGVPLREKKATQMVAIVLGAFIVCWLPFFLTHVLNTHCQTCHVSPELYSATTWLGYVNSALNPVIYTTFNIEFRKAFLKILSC
From the text: For this purpose sDNA of human D3 receptor is expressed in CHO cells, as it was described in [Sokoloff P, Giros B, Martres M-P, Bouthenet M-L and Schwartz J-C. Molecular cloning and characterization of novel dopamine receptor (D3) as target for neuroleptics. Nature. […] Molecular cloning and characterization of novel dopamine receptor (D3) as target for neuroleptics. Nature. […] Spiperone is used as positive control.

[5] = target: T5, recombinant human 5-HT6 receptor (Homo sapiens, UniProt P50406); test: Radioligand binding to serotonin receptor 5-HT6 ([3H] Lysergic acid diethylamide, HeLa membranes)
T5 construct: expressed in transfected cells; host or cells: HeLa
T5 sequence (P50406 whole entry): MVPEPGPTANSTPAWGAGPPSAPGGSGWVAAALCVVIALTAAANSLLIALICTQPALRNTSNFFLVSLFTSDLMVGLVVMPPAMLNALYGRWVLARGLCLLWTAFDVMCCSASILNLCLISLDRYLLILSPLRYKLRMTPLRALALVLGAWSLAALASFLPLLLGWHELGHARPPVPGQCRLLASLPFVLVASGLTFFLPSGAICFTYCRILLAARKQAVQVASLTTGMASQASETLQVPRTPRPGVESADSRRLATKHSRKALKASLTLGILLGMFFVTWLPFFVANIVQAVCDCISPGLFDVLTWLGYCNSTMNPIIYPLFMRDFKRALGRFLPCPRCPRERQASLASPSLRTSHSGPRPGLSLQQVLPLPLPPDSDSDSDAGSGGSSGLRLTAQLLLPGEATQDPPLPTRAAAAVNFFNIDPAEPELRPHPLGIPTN
From the text: Mol Pharmacol. 43:320-327, 1993]. […] Methiothepin is used as positive control.

[6] = target: T6, human D2S receptor (Homo sapiens, UniProt P14416); test: Radioligand binding to dopamine receptor D2S ([3H] Spiperone, CHO membranes)
T6 construct: expressed in transfected cells; host or cells: CHO
T6 sequence (P14416 1-414 isoform P14416-2): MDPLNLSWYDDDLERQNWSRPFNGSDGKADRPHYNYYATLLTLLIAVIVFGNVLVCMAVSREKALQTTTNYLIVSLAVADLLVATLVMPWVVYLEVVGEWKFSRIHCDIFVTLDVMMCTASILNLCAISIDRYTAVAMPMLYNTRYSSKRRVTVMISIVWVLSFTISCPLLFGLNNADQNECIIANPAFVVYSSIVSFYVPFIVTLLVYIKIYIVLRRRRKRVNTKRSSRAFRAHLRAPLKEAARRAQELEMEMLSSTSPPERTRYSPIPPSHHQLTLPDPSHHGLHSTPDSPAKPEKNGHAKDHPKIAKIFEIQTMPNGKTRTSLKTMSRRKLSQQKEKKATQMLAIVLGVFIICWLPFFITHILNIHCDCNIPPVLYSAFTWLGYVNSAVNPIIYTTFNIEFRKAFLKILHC
From the text: 7-C. […] For this purpose sDNA of human D2S receptor is expressed in CHO cells, as described in [Hayes G, Biden TJ, Selbie LA and Shine J, Structural subtypes of the dopamine D2 receptor are functionally distinct. […] Mol Endocrinol. […] Mol Endocrinol. […] Spiperone is used as positive control.

[7] = target: T7, recombinant human 5-HT2A receptor (Homo sapiens, UniProt P28223); test: Radioligand binding to serotonin receptor 5-HT2A ([3H] Ketanserin, CHO-K1 membranes); conditions: for inhibition at 10 µM / 5-HT2A % inhibition: 10 µM ligand
T7 construct: expressed in transfected cells; host or cells: CHO-K1
T7 sequence (P28223 whole entry): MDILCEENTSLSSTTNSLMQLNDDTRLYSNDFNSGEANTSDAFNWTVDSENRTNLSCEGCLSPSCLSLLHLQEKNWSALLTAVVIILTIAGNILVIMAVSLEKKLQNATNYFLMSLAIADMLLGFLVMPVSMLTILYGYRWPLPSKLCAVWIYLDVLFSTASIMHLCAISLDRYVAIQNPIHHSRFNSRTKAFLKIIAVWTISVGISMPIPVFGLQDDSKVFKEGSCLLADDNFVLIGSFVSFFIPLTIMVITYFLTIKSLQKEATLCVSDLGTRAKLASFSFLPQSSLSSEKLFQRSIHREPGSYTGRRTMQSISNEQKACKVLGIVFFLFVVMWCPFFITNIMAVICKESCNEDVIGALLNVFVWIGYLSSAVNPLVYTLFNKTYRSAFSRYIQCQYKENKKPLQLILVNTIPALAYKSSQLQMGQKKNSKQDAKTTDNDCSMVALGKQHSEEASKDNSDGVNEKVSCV
From the text: 9-C. […] J Neurochem. […] Ketanserin is used as positive control.

[8] = target: T8, recombinant human 5-HT1A (Homo sapiens, UniProt P08908); test: Radioligand binding to serotonin receptor 5-HT1A ([3H] 8-OH-DPAT, CHO membranes); conditions: for inhibition at 10 µM: read-out: 5-HT1A % inhibition
T8 construct: expressed in transfected cells; host or cells: CHO
T8 sequence (P08908 1-422): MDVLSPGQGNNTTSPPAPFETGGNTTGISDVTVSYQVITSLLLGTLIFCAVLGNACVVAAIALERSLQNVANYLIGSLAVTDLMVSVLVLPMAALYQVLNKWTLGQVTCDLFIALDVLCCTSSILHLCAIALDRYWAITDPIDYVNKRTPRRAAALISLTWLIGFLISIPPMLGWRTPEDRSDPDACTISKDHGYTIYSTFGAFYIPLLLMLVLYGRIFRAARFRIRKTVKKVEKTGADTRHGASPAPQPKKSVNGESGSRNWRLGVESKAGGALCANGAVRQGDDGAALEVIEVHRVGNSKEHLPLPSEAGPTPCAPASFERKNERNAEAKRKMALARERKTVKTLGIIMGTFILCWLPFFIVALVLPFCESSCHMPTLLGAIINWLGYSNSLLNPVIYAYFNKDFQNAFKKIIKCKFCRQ
From the text: J Pharmacol Exp Ther. 306(1): 301-309, 2003]. […] Metergoline is used as positive control.

[9] = target: T9, human 5-HT7 receptor (Homo sapiens, UniProt P34969); test: Radioligand binding to serotonin receptor 5-HT7 ([3H] Lysergic acid diethylamide, CHO membranes)
T9 construct: expressed in transfected cells; host or cells: CHO
T9 sequence (P34969 whole entry): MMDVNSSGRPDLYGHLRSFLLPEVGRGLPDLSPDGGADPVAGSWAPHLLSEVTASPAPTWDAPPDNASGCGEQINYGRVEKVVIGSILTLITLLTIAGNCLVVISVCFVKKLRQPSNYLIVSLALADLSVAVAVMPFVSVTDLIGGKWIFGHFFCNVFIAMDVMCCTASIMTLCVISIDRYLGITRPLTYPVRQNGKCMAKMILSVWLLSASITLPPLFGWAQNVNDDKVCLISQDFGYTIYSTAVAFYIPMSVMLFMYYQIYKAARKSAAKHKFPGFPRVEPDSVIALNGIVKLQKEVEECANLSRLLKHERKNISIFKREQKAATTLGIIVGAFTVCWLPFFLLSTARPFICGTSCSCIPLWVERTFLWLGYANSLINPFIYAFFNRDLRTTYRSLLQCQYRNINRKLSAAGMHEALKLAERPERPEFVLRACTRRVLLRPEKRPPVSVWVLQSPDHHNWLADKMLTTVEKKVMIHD
From the text: For this purpose sDNA of human 5-HT7 receptor is expressed in CHO cells as it was described in [Shen Y, Monsma FJ Jr, Metcalf MA, Jose PA, Hamblin MW, and Sibley DR. […] J. Biol. Chem. 1993, 268, 18200 - 18204]. […] J. Pharmacol. Exp. Ther. 1994, 268:1403-1410]. […] Methiothepin is used as positive control.

[10] = read-out: α-Adrenoceptor, % inhibition α1D
[11] = read-out: Dopamine receptors, % inhibition D3
[12] = read-out: Dopamine receptors, % inhibition D2S
[13] = last block of Table 11: receptor printed 5-HT6 in r18, cell blank in r19-r21

SMILES: Cc1ccc2c(c1)[C@@H]1CN(C)CCC[C@@H]1N2CCc1cccnc1 (relative stereo) [1.6.1(1)·3HCl]
- inhibition at 10 µM [1]: 59%
- inhibition at 10 µM [2, 10]: 90%
- inhibition at 10 µM [3]: -6%
- inhibition at 10 µM [4, 11]: 34%
- inhibition at 1 µM ([5]; read-out: 5-HT6 % inhibition): 84%
- inhibition at 10 µM [6, 12]: 42%

SMILES: Cc1ccc2c(c1)[C@@H]1CN(C)CCC[C@@H]1N2CCc1ccc(C)nc1 (relative stereo) [1.6.1(2)·3HCl]
- inhibition at 10 µM [1]: 55%
- inhibition at 10 µM [2, 10]: 87%
- inhibition at 10 µM [3]: -11%
- inhibition at 10 µM [7]: -4%
- inhibition at 10 µM [8]: -9%
- inhibition at 10 µM ([9]; read-out: 5-HT7 % inhibition): 8%
- inhibition at 10 µM [4, 11]: 41%
- inhibition at 1 µM ([5]; read-out: 5-HT6 % inhibition): 76%
- inhibition at 10 µM ([5]; read-out: 5-HT6 % inhibition): -10%
- inhibition at 10 µM [6, 12]: 31%

SMILES: Cc1ccc2c(c1)c1c(n2CCc2ccccc2)CCN(C)C1 [1.1.2(1-2)·HCl, 2,8-dimethyl-5-phenethyl-1,2,3,4-tetrahydro-1H-pyrido[4,3-b]indole hydrochloride]
- inhibition at 10 µM [2, 10]: 102%
- inhibition at 10 µM [8]: 84%

SMILES: Cc1ccc(CCn2c3c(c4cc(C)ccc42)CN(C)CC3)cc1 [1.1.2(1-3), 2,8-dimethyl-5-[2-(4-methylphenyl)-ethyl]-1,2,3,4-tetrahydro-1H-pyrido[4,3-b]indole]
- nH [2]: 1,21
- 5-HT2A % inhibition [7]: 98%
- 5-HT1A % inhibition ([8]; 10 µM ligand): 68%
- 5-HT7 % inhibition ([9]; 10 µM ligand): 98%

SMILES: Cc1ccc2c(c1)c1c(n2CCc2ccccn2)CCN(C)C1 [1.1.2(2-3)·2HCl]
- inhibition at 10 µM [1]: 70%
- inhibition at 10 µM [2, 10]: 92%
- inhibition at 100 µM [3]: 71%
- inhibition at 3 µM [4, 11]: 78%
- IC50 [5]: 0.00214 µM
- Ki [5]: 0.00123 µM
- nH ([5]; 5-HT6): 0.744
- nH [5, 13]: 0.655
- inhibition at 3 µM [6, 12]: 77%

SMILES: Cc1ccc2c(c1)c1c(n2CCc2ccc(C)nc2)CCN(C)C1 [1.1.2(4-2)·2HCl]
- inhibition at 10 µM ([1]; 10 µM ligand): 82%
- inhibition at 10 µM ([3]; 10 µM ligand): 54%
- inhibition at 10 µM ([8]; 10 µM ligand): 9%
- inhibition at 10 µM ([9]; 10 µM ligand, read-out: 5-HT7 % inhibition): 96%
- inhibition at 10 µM ([4]; 10 µM ligand, read-out: Dopamine receptors, % inhibition D3): 64%
- inhibition at 10 µM ([5]; 10 µM ligand, read-out: 5-HT6 % inhibition): 90%
- Dopamine receptors, % inhibition D2S ([6]; 10 µM ligand): 80%
- Ki ([6]; Receptor D2S): 0.629 µM
- nH ([6]; Receptor D2S): 0.724

SMILES: Cc1ccc2c(c1)c1c(n2CCc2ccccn2)CCCN(C)C1 [1.2.2(2-2)]
- α-Adrenoceptor, % inhibition α1D ([2]; 10 µM ligand): 63%
- 5-HT2A % inhibition [7]: 46%
- 5-HT1A % inhibition ([8]; 10 µM ligand): -5%
- 5-HT7 % inhibition ([9]; 10 µM ligand): 74%
- 5-HT6 % inhibition ([5]; 10 µM ligand): 21%

SMILES: CN1CCc2c(c3ccccc3n2Cc2ccccc2)C1 [1.9(1)·1/2NDSA, bis-(5-benzyl-2-methyl-2,3,4,5-tetrahydro-1H-pyrido[4,3-b]indole) naphthalene-1,5-disulfonate]
- IC50 ([1]; Receptor D1): 3.66 µM
- Ki ([1]; Receptor D1): 1.83 µM
- nH ([1]; Receptor D1): 1.38
- inhibition at 10 µM [1]: 77%
- nH [2]: 1,05
- inhibition at 3 µM [2, 10]: 70%
- nH ([4]; Receptor D3): 1.04
- inhibition at 10 µM [4, 11]: 65%
- nH ([5]; 5-HT6): 1.07
- inhibition at 0.3 µM ([5]; read-out: 5-HT6 % inhibition): 78%
- nH ([6]; Receptor D2S): 0.879
- inhibition at 10 µM [6, 12]: 51%

SMILES: CN1CCc2c(c3ccccc3n2Cc2ccccc2)C1.Cl [1.9(1)·HCl, 5-benzyl-2-methyl-2,3,4,5-tetrahydro-1H-pyrido[4,3-b]indole hydrochloride]
- inhibition at 0.1 µM ([7]; 0.1µM ligand): 68%
- inhibition at 10 µM [7]: 96%
- nH ([7]; 5-HT2A): 0.765
- inhibition at 0.3 µM ([9]; read-out: 5-HT7 % inhibition): 76%
- inhibition at 10 µM ([9]; read-out: 5-HT7 % inhibition): 91%
- IC50 [5]: 0.11 µM
- Ki [5]: 0.0632 µM
- nH ([5]; 5-HT6): 1.04
- nH [5, 13]: 1.32
- inhibition at 10 µM ([5]; read-out: 5-HT6 % inhibition): 71%
